This passage reports TGI and GI50 results from PubChem BioAssay (NCI).

Each structure is given as a SMILES string.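 Five compound concentrations were applied to cells in 96-well plates for 48 hours; endpoints were derived by simple linear interpolation of the resulting dose-response curve. Abbreviation: GI50, concentration required for 50% inhibition of growth. Definition used: TGI = concentration required for complete inhibition of growth.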

Some test systems named below: 786-0 renal; SNB-78 CNS; KM20L2 colon; OVCAR-8 ovarian; SNB-75 CNS; IGROV1 ovarian; SK-MEL-28 melanoma; HOP-92 NSCLC; MOLT-4 leukemia.
Common to all, as to assay: NCI-60 cell line screen, 48 h

Take `Cn1c(=O)nc2n(-c3cccc(Br)c3)c3ccccc3nc-2c1=O`: the TGI in the test on 786-0 renal is 16.7 µM; in the test on SNB-78 CNS, 33.3 µM; in the test with KM20L2 colon, 6.97 µM; in the test on OVCAR-8 ovarian, 25.4 µM; in the test with SNB-75 CNS it was 22.2 µM; in the test with IGROV1 ovarian, 23.7 µM.
As to `N#CC(C(=O)CCC(=O)C(C#N)c1ccccc1)c1ccccc1` (centres undefined), the TGI in the test on 786-0 renal, in the test on SNB-78 CNS, with SK-MEL-28 melanoma, in the test with OVCAR-8 ovarian, in the test with SNB-75 CNS and in the test on HOP-92 NSCLC was more than 100 µM throughout. In addition, the TGI in the test on MOLT-4 leukemia and with IGROV1 ovarian was more than 100 µM throughout.
As for `COC(=O)C(=O)OC1(C(C)=O)CC2(c3ccccc3)OC1(c1ccccc1)c1ccccc12` (centres undefined), the TGI in the test with 786-0 renal is 26.9 µM; in the test with SNB-78 CNS it was 65 µM; in the test on KM20L2 colon, 30.7 µM; in the test on OVCAR-8 ovarian it was 30.3 µM; in the test with SNB-75 CNS, 61.5 µM; in the test on HOP-92 NSCLC, 27 µM. In addition, the results for the TGI in the test on MOLT-4 leukemia and in the test with IGROV1 ovarian were more than 100 µM and 41.4 µM, respectively.
Regarding `CC1(c2cccc3ccccc23)OC(=O)c2ccccc21` (centres undefined), the TGI in the test on 786-0 renal is 71.3 µM; in the test on SNB-78 CNS, more than 100 µM; in the test with KM20L2 colon, 35.7 µM; in the test with SK-MEL-28 melanoma, 75.8 µM; with OVCAR-8 ovarian, more than 100 µM; in the test with SNB-75 CNS, 46 µM. Besides, the TGI came out at 36.5 µM in the test with HOP-92 NSCLC, 55.6 µM in the test on MOLT-4 leukemia and 55.3 µM in the test on IGROV1 ovarian.
Regarding `CCCCCCCCCCCCCC(=O)CC(=O)c1c(O)cccc1O`, the TGI in the test with 786-0 renal was more than 100 µM; in the test with SNB-78 CNS, 75.5 µM; with KM20L2 colon it was more than 100 µM; in the test with SK-MEL-28 melanoma, more than 100 µM; in the test on OVCAR-8 ovarian, more than 100 µM; with SNB-75 CNS it was more than 100 µM. The TGI in the test with HOP-92 NSCLC was 89.7 µM; in the test with MOLT-4 leukemia, 52.7 µM; with IGROV1 ovarian, more than 100 µM.
Turning to `CCCCCC/C=C1\CCC(CN2CCCC2)C1=O` (centres undefined), the TGI with 786-0 renal was 6.43 µM; with SNB-78 CNS, 60.2 µM; with KM20L2 colon, 41.3 µM; in the test with SK-MEL-28 melanoma it was 33.8 µM; in the test on OVCAR-8 ovarian, 39.2 µM; with SNB-75 CNS, 38.3 µM. Further, the TGI with HOP-92 NSCLC is 32.4 µM; with MOLT-4 leukemia it was more than 87 µM; in the test with IGROV1 ovarian, 39.6 µM.
`CCOc1ccccc1NC(=O)CC1SC(=Nc2ccc([N+](=O)[O-])cc2)NC1=O` (centres undefined): the TGI in the test on 786-0 renal was 33.5 µM; in the test on SNB-78 CNS, more than 100 µM; in the test on KM20L2 colon it was 42.2 µM; in the test on SK-MEL-28 melanoma it was 70 µM; in the test with OVCAR-8 ovarian, 51.4 µM; with SNB-75 CNS it was 74.2 µM. In addition, the TGI in the test with HOP-92 NSCLC came out at 25.8 µM; in the test with MOLT-4 leukemia, 60.3 µM; with IGROV1 ovarian, 61.4 µM.
Regarding `O=C(CC1(O)C(=O)Nc2c(Cl)ccc(Cl)c21)c1ccc2ccccc2c1` (centres undefined), the TGI turned out to be 22.4 µM with 786-0 renal; 46.3 µM with SNB-78 CNS; 62.1 µM in the test on KM20L2 colon; 32.6 µM with SK-MEL-28 melanoma; 38.3 µM in the test on OVCAR-8 ovarian; 54 µM in the test on SNB-75 CNS. Moreover, the TGI with MOLT-4 leukemia is 38.9 µM; with IGROV1 ovarian, 41.4 µM.
`BrC1=CC=C2NC=CC3=CC=NC1C32` (centres undefined): the TGI is more than 100 µM in the test on 786-0 renal; more than 100 µM in the test on SNB-78 CNS; more than 100 µM with KM20L2 colon; more than 100 µM with SK-MEL-28 melanoma; more than 94 µM with OVCAR-8 ovarian; 98.9 µM with SNB-75 CNS. The TGI in the test on HOP-92 NSCLC was 71.2 µM; with MOLT-4 leukemia, 15.6 µM; in the test on IGROV1 ovarian, more than 100 µM.
In the case of `O=[N+]([O-])c1nccn1CC(O)CN1CC1` (centres undefined), the TGI in the test on 786-0 renal, with SNB-78 CNS, with KM20L2 colon, with SK-MEL-28 melanoma, in the test with OVCAR-8 ovarian and in the test on SNB-75 CNS was more than 100 µM in each case. Further, the TGI with MOLT-4 leukemia and in the test with IGROV1 ovarian was more than 100 µM throughout.
For `Oc1cc(O)c2c(-c3c(O)c(-c4ccc(O)c(O)c4)[o+]c4cc(O)cc(O)c34)c(O)c(-c3ccc(O)c(O)c3)[o+]c2c1`, the TGI in the test on 786-0 renal is more than 100 µM; with SNB-78 CNS, more than 100 µM; in the test with KM20L2 colon it was more than 100 µM; in the test on SK-MEL-28 melanoma, more than 100 µM; with OVCAR-8 ovarian, more than 100 µM; with SNB-75 CNS, 61.8 µM. The TGI in the test on HOP-92 NSCLC, with MOLT-4 leukemia and with IGROV1 ovarian was more than 100 µM throughout.
As to `O=C1NC(=O)C2C(=O)NC(=O)C1C2(c1ccccc1)c1cc[nH]c1` (centres undefined), the TGI in the test on 786-0 renal, in the test on SNB-78 CNS, in the test with SK-MEL-28 melanoma, in the test with OVCAR-8 ovarian, with SNB-75 CNS and in the test on HOP-92 NSCLC was more than 100 µM each time. The TGI in the test on MOLT-4 leukemia and with IGROV1 ovarian was more than 100 µM throughout.
With `CN(C)c1ccc([O][Bi]([Cl])[Cl])cc1`, the GI50 with 786-0 renal was more than 100 µM; in the test on SNB-78 CNS, more than 100 µM; in the test with KM20L2 colon, more than 100 µM; with SK-MEL-28 melanoma it was more than 100 µM; in the test on OVCAR-8 ovarian, 53.2 µM; in the test with SNB-75 CNS it was more than 100 µM. Also, the GI50 in the test with MOLT-4 leukemia and in the test on IGROV1 ovarian was more than 100 µM throughout. Moreover, the TGI in the test with 786-0 renal, with SNB-78 CNS, with KM20L2 colon, in the test on SK-MEL-28 melanoma, in the test with OVCAR-8 ovarian and in the test on SNB-75 CNS was more than 100 µM throughout. In addition, the TGI with MOLT-4 leukemia and with IGROV1 ovarian was more than 100 µM in each case.
Turning to `O=c1cc2ccccc2nn1Cc1cccc(Cl)c1`, the TGI with 786-0 renal, with SNB-78 CNS, with KM20L2 colon, with SK-MEL-28 melanoma, in the test with OVCAR-8 ovarian and with SNB-75 CNS was more than 100 µM in each case. Besides, the TGI with HOP-92 NSCLC and in the test on IGROV1 ovarian was more than 100 µM each time.
